Test results: paper PMC12044458 (ACS Omega, 2025)

What was measured:
[1] = system: Poly(I:C) HMW (RNA, polymer, hypoxanthine (inosine) in place of every G of strand 1 (polyinosinic acid)) G/C; test: UV melting; conditions: PBS, 0 mM Mg2+, derived from two Tm (67 and 67), compound concentration not in material, per base
[2] = system: Poly(I:C) Na^+ (RNA, polymer, hypoxanthine (inosine) in place of every G of strand 1 (polyinosinic acid)) G/C; test: UV melting; conditions: PBS, 0 mM Mg2+, derived from two Tm (64 and 65), compound concentration not in material, per base

Compound: CN(C)[C@@H]1C(=O)C(C(N)=O)=C(O)[C@@]2(O)C(=O)C3=C(O)c4c(O)cccc4[C@@](C)(O)[C@H]3C[C@@H]12
- melting temperature shift (ΔTm) [1]: 0 °C
- melting temperature shift (ΔTm) [2]: -1 °C
